Each molecule was assayed on Coptotermes formosanus Shiraki (assay: Test Example 1: termite-killing test on treated filter paper). Conditions: mortality class; 1 ml of a 500 ppm solution on filter paper, seven days after inoculation, triplicate group of 10 insects.
Assay type: in vivo
Protocol: A filter paper was spread in a glass dish having a diameter of 9 cm, onto which was dropped 1 ml of a 500 ppm solution of the ant controller of the present invention. Then, the filter paper was inoculated with Coptotermes formosanus Shiraki. Seven days after the inoculation, percentage of dead insects was investigated, from which mortality was calculated. The test was carried out with triplicate group of 10 insects.
For `CC(C(=NNC(=O)Nc1ccc(OC(F)(F)F)cc1)c1ccccc1)c1ccccc1` (mixture of isomers) [Compound 50], the Termite-killing effect was “A (100)”.
For `O=C(NN=C(c1ccccc1)C(O)c1ccc(Cl)cc1)Nc1ccc(OC(F)(F)F)cc1` (racemic) [Compound 61], the Termite-killing effect was “A (100)”.
`N#Cc1ccc(C(O)C(=NNC(=O)Nc2ccc(Cl)cc2)c2ccccc2)cc1` (racemic) [Compound 62] was tested, and the Termite-killing effect was “A (100)”.
`N#Cc1ccc(C(O)C(=NNC(=O)Nc2ccc(OC(F)(F)F)cc2)c2ccccc2)cc1` (racemic) [Compound 63] was tested, and the Termite-killing effect was “A (100)”.
With `CC(C(=NNC(=O)Nc1ccc(Cl)cc1)c1ccccc1)c1ccccc1` (racemic) [Compound 64] the Termite-killing effect was “A (100)”.
With `CC(C(=NNC(=S)Nc1ccc(OC(F)(F)F)cc1)c1ccccc1)c1ccccc1` (racemic) [Compound 65] the Termite-killing effect was “C (89-80)”.
For `COC(C(=NNC(=O)Nc1ccc(Cl)cc1)c1ccccc1)c1ccccc1` (racemic) [Compound 66], the Termite-killing effect was “A (100)”.
For `COC(C(=NNC(=O)Nc1ccc(OC(F)(F)F)cc1)c1ccccc1)c1ccccc1` (racemic) [Compound 67], the Termite-killing effect was “A (100)”.
`CC(C)OC(C(=NNC(=O)Nc1ccc(Cl)cc1)c1ccccc1)c1ccccc1` (racemic) [Compound 68] was tested, and the Termite-killing effect was “A (100)”.
In the case of `CC(C)OC(C(=NNC(=O)Nc1ccc(OC(F)(F)F)cc1)c1ccccc1)c1ccccc1` (racemic) [Compound 69], the Termite-killing effect was “B (99-90)”.
For `CC(C)COC(C(=NNC(=O)Nc1ccc(Cl)cc1)c1ccccc1)c1ccccc1` (racemic) [Compound 70], the Termite-killing effect was “A (100)”.
For `CC(C)COC(C(=NNC(=O)Nc1ccc(OC(F)(F)F)cc1)c1ccccc1)c1ccccc1` (racemic) [Compound 71], the Termite-killing effect was “A (100)”.
With `CC(=O)OC(C(=NNC(=O)Nc1ccc(OC(F)(F)F)cc1)c1ccccc1)c1ccccc1` (racemic) [Compound 72] the Termite-killing effect was “A (100)”.
`O=C(NN=C(c1ccccc1)C(OC(=O)c1ccccc1)c1ccccc1)Nc1ccc(OC(F)(F)F)cc1` (racemic) [Compound 73] was tested, and the Termite-killing effect was “A (100)”.
For `CN(N=C(c1ccccc1)C(O)c1ccccc1)C(=O)Nc1ccc(Cl)cc1` (racemic) [Compound 74], the Termite-killing effect was “A (100)”.
For `CN(N=C(c1ccccc1)C(O)c1ccccc1)C(=O)Nc1ccc(OC(F)(F)F)cc1` (racemic) [Compound 75], the Termite-killing effect was “A (100)”.
With `O=C(NNC(Cc1ccccc1)c1ccccc1)Nc1ccc(Cl)cc1` (racemic) [Compound 84] the Termite-killing effect was “A (100)”.
In the case of `O=C(NNC(Cc1ccccc1)c1ccccc1)Nc1ccc(OC(F)(F)F)cc1` (racemic) [Compound 85], the Termite-killing effect was “C (89-80)”.
For `O=C(NNC(Cc1ccc(Cl)cc1)c1ccccc1)Nc1ccc(OC(F)(F)F)cc1` (racemic) [Compound 86], the Termite-killing effect was “A (100)”.
`N#Cc1ccc(CC(NNC(=O)Nc2ccc(OC(F)(F)F)cc2)c2ccccc2)cc1` (racemic) [Compound 87] was tested, and the Termite-killing effect was “C (89-80)”.
In the case of `O=C(NNC(Cc1ccc([N+](=O)[O-])cc1)c1ccccc1)Nc1ccc(OC(F)(F)F)cc1` (racemic) [Compound 88], the Termite-killing effect was “A (100)”.
In the case of `O=C(NNC(Cc1ccc(Cl)cc1)c1cccc(F)c1)Nc1ccc(OC(F)(F)F)cc1` (racemic) [Compound 89], the Termite-killing effect was “B (99-90)”.
With `O=C(NNC(Cc1ccc(Cl)cc1)c1cccc(Cl)c1)Nc1ccc(OC(F)(F)F)cc1` (racemic) [Compound 90] the Termite-killing effect was “A (100)”.
For `N#Cc1ccc(CC(NNC(=O)Nc2ccc(OC(F)(F)F)cc2)c2cccc(C(F)(F)F)c2)cc1` (single isomer, unassigned) [Compound 117], the Termite-killing effect was “A (100)”.
`N#Cc1ccc(CC(NNC(=O)Nc2ccc(OC(F)(F)F)cc2)c2cccc(C(F)(F)F)c2)cc1` (single isomer, unassigned) [Compound 118] was tested, and the Termite-killing effect was “D (79-50)”.
For `O=C(NN=C(Cc1ccccc1)c1ccccc1)Nc1ccc(Cl)cc1` [Compound 1], the Termite-killing effect was “A (100)”.
`O=C(NN=C(Cc1ccccc1)c1ccccc1)Nc1ccc(OC(F)(F)F)cc1` [Compound 2] was tested, and the Termite-killing effect was “B (99-90)”.
`O=C(NN=C(Cc1ccc(Cl)cc1)c1ccccc1)Nc1ccc(Cl)cc1` [Compound 3] was tested, and the Termite-killing effect was “A (100)”.
For `O=C(NN=C(Cc1ccc(Cl)cc1)c1ccccc1)Nc1ccc(OC(F)(F)F)cc1` [Compound 4], the Termite-killing effect was “A (100)”.
In the case of `N#Cc1ccc(CC(=NNC(=O)Nc2ccc(Cl)cc2)c2ccccc2)cc1` [Compound 5], the Termite-killing effect was “A (100)”.
For `N#Cc1ccc(CC(=NNC(=S)Nc2ccc(Cl)cc2)c2ccccc2)cc1` [Compound 6], the Termite-killing effect was “A (100)”.
For `N#Cc1ccc(CC(=NNC(=S)Nc2ccc(OC(F)(F)F)cc2)c2ccccc2)cc1` [Compound 7], the Termite-killing effect was “A (100)”.
`O=C(NN=C(Cc1ccc([N+](=O)[O-])cc1)c1ccccc1)Nc1ccc(Cl)cc1` [Compound 10] was tested, and the Termite-killing effect was “A (100)”.
In the case of `O=[N+]([O-])c1ccc(CC(=NNC(=S)Nc2ccc(Cl)cc2)c2ccccc2)cc1` [Compound 11], the Termite-killing effect was “A (100)”.
`O=C(NN=C(Cc1ccc([N+](=O)[O-])cc1)c1ccccc1)Nc1ccc(OC(F)(F)F)cc1` [Compound 12] was tested, and the Termite-killing effect was “A (100)”.
For `O=[N+]([O-])c1ccc(CC(=NNC(=S)Nc2ccc(OC(F)(F)F)cc2)c2ccccc2)cc1` [Compound 13], the Termite-killing effect was “A (100)”.
With `O=C(NN=C(Cc1ccc([N+](=O)[O-])cc1)c1ccccc1)Nc1ccc(SC(F)(F)F)cc1` [Compound 14] the Termite-killing effect was “A (100)”.
`O=C(NN=C(Cc1ccccc1)c1cccc(Cl)c1)Nc1ccc(OC(F)(F)F)cc1` [Compound 15] was tested, and the Termite-killing effect was “B (99-90)”.
With `O=C(NN=C(Cc1ccc(Cl)cc1)c1cccc(Cl)c1)Nc1ccc(OC(F)(F)F)cc1` [Compound 16] the Termite-killing effect was “C (89-80)”.
For `N#Cc1ccc(CC(=NNC(=O)Nc2ccc(Cl)cc2)c2cccc(Cl)c2)cc1` [Compound 17], the Termite-killing effect was “A (100)”.
In the case of `N#Cc1ccc(CC(=NNC(=S)Nc2ccc(OC(F)(F)F)cc2)c2cccc(Cl)c2)cc1` [Compound 20], the Termite-killing effect was “A (100)”.
In the case of `N#Cc1ccc(CC(=NNC(=O)Nc2ccc(SC(F)(F)F)cc2)c2cccc(Cl)c2)cc1` [Compound 21], the Termite-killing effect was “A (100)”.
With `N#Cc1ccc(CC(=NNC(=O)Nc2ccc([S+]([O-])C(F)(F)F)cc2)c2cccc(Cl)c2)cc1` (stereo not drawn) [Compound 22] the Termite-killing effect was “B (99-90)”.
For `N#Cc1ccc(CC(=NNC(=O)Nc2ccc(S(=O)(=O)C(F)(F)F)cc2)c2cccc(Cl)c2)cc1` [Compound 23], the Termite-killing effect was “A (100)”.
In the case of `O=C(NN=C(Cc1ccccc1)c1cccc(Br)c1)Nc1ccc(Cl)cc1` [Compound 24], the Termite-killing effect was “C (89-80)”.
For `O=C(NN=C(Cc1ccccc1)c1cccc(Br)c1)Nc1ccc(OC(F)(F)F)cc1` [Compound 25], the Termite-killing effect was “D (79-50)”.
For `N#Cc1ccc(CC(=NNC(=O)Nc2ccc(Cl)cc2)c2cccc(Br)c2)cc1` [Compound 26], the Termite-killing effect was “A (100)”.
`N#Cc1ccc(CC(=NNC(=O)Nc2ccc(OC(F)(F)F)cc2)c2cccc(Br)c2)cc1` [Compound 27] was tested, and the Termite-killing effect was “A (100)”.
With `N#Cc1ccc(CC(=NNC(=O)Nc2ccc(SC(F)(F)F)cc2)c2cccc(Br)c2)cc1` [Compound 28] the Termite-killing effect was “C (89-80)”.
With `N#Cc1ccc(CC(=NNC(=O)Nc2ccc([S+]([O-])C(F)(F)F)cc2)c2cccc(Br)c2)cc1` (stereo not drawn) [Compound 29] the Termite-killing effect was “C (89-80)”.
With `N#Cc1ccc(CC(=NNC(=O)Nc2ccc(S(=O)(=O)C(F)(F)F)cc2)c2cccc(Br)c2)cc1` [Compound 30] the Termite-killing effect was “A (100)”.
`O=C(NN=C(Cc1ccccc1)c1cccc(F)c1)Nc1ccc(Cl)cc1` [Compound 31] was tested, and the Termite-killing effect was “A (100)”.
In the case of `O=C(NN=C(Cc1ccccc1)c1cccc(F)c1)Nc1ccc(OC(F)(F)F)cc1` [Compound 32], the Termite-killing effect was “A (100)”.
With `O=C(NN=C(Cc1ccc(Cl)cc1)c1cccc(F)c1)Nc1ccc(OC(F)(F)F)cc1` [Compound 33] the Termite-killing effect was “C (89-80)”.
For `O=C(NN=C(Cc1ccc(Cl)cc1)c1cccc(F)c1)Nc1ccc(Cl)cc1` [Compound 34], the Termite-killing effect was “A (100)”.
With `N#Cc1ccc(CC(=NNC(=O)Nc2ccc(OC(F)(F)F)cc2)c2cccc(F)c2)cc1` [Compound 35] the Termite-killing effect was “A (100)”.
With `N#Cc1ccc(CC(=NNC(=O)Nc2ccc(Cl)cc2)c2cccc(I)c2)cc1` [Compound 36] the Termite-killing effect was “B (99-90)”.
In the case of `N#Cc1ccc(CC(=NNC(=O)Nc2ccc(OC(F)(F)F)cc2)c2cccc(I)c2)cc1` [Compound 37], the Termite-killing effect was “A (100)”.
In the case of `Cc1cccc(C(Cc2ccccc2)=NNC(=O)Nc2ccc(Cl)cc2)c1` [Compound 38], the Termite-killing effect was “B (99-90)”.
In the case of `Cc1cccc(C(Cc2ccccc2)=NNC(=O)Nc2ccc(OC(F)(F)F)cc2)c1` [Compound 39], the Termite-killing effect was “A (100)”.
For `Cc1cccc(C(Cc2ccc(C#N)cc2)=NNC(=O)Nc2ccc(Cl)cc2)c1` [Compound 40], the Termite-killing effect was “D (79-50)”.
For `Cc1cccc(C(Cc2ccc(C#N)cc2)=NNC(=O)Nc2ccc(OC(F)(F)F)cc2)c1` [Compound 41], the Termite-killing effect was “A (100)”.
For `O=C(NN=C(Cc1ccccc1)c1cccc(C(F)(F)F)c1)Nc1ccc(Cl)cc1` [Compound 42], the Termite-killing effect was “A (100)”.
`O=C(NN=C(Cc1ccccc1)c1cccc(C(F)(F)F)c1)Nc1ccc(OC(F)(F)F)cc1` [Compound 43] was tested, and the Termite-killing effect was “A (100)”.
`N#Cc1ccc(CC(=NNC(=S)Nc2ccc(OC(F)(F)F)cc2)c2cccc(C(F)(F)F)c2)cc1` [Compound 45] was tested, and the Termite-killing effect was “A (100)”.
For `CN(C(=O)NN=C(Cc1ccccc1)c1ccccc1)c1ccc(Cl)cc1` [Compound 46], the Termite-killing effect was “A (100)”.
In the case of `CN(C(=O)NN=C(Cc1ccccc1)c1ccccc1)c1ccc(OC(F)(F)F)cc1` [Compound 47], the Termite-killing effect was “A (100)”.
In the case of `CC(C(=NNC(=O)Nc1ccc(Cl)cc1)c1ccccc1)c1ccccc1` (stereo not drawn) [Compound 48], the Termite-killing effect was “A (100)”.
In the case of `CC(C(=NNC(=O)Nc1ccc(Br)cc1)c1ccccc1)c1ccccc1` (stereo not drawn) [Compound 49], the Termite-killing effect was “C (89-80)”.

Reference: patent US8361487B1, “Ant controllers and method for application thereof” (BASF Aktiengesellschaft, priority 1999, dated 2013)
